Test results taken from patent US20240034743A9, “TRICYCLIC COMPOUNDS AS EGFR INHIBITORS” (QILU PHARMACEUTICAL CO., LTD., priority 2020, published 2024).
Read-outs that look alike come from different tables or passages of the source.

What was measured:
[1] = test system: Ba/F3_Del19/T790M/C797S cells; assay: Ba/F3_Del19/T790M/C797S cell proliferation inhibition assay (CellTiter-Glo); assay type: cell-based; conditions: Mus musculus
In short: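 IC50 for growth inhibition came from CellTiter-Glo chemiluminescence after a 72 h, 37° C compound exposure. Ba/F3_Del19/T790M/C797S cells were plated at 700/well, and compound was dosed in gradient with 0.1% final DMSO.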

EGFR WT (wild type EGFR) = EGFR WT (wild type EGFR) (Homo sapiens (Human), UniProt P00533); assay: In vitro enzymatic TR-FRET (HTRF KinEASE-TK) kinase assay, EGFR WT; assay type: biochemical
In short: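 IC50 derived from the 665/615 nm TR-FRET ratio after 1 h with streptavidin-XL665 and Cryptate-labelled TK antibody. Kinase reaction ran 40 min at room temperature with biotin-TK substrate and ATP, following 10 min compound–enzyme preincubation. Buffer: 5 mM MgCl2, 1 mM MnCl2, 1 mM DTT.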

A431 cells (EGFR WT) = assay: A431 cell proliferation inhibition assay (CellTiter-Glo); assay type: cell-based; conditions: Homo sapiens
In short: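 CellTiter-Glo luminescence quantified growth after 72 h treatment with serially diluted compounds (final DMSO 0.1%), following a 24 h attachment period at 37° C, 5% CO2. Signal read after 30 min dark incubation at room temperature, with half-maximal growth inhibition reported as IC50.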

[2] = test system: Ba/F3_L858R/T790M/C797S cells; assay: Ba/F3_L858R/T790M/C797S cell proliferation inhibition assay (CellTiter-Glo); assay type: cell-based; conditions: Mus musculus
In short: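 Proliferation IC50 derived from CellTiter-Glo luminescence in Ba/F3 cells expressing triple-mutant EGFR (L858R/T790M/C797S). Cells (700/well) incubated 72 h with graded compound doses at 0.1% DMSO final, 37 °C, 5% CO2; reagent developed 30 min at room temperature in the dark.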

[3] = BaF3, 72 h, read-out: Ba/F3 (Del19/T790M/C797S) IC50(nM)
[4] = kinase activity, TR-FRET, read-out: EGFR (WT) IC50
[5] = A-431, 72 h, read-out: A431 EGFR WT IC50(nM)
[6] = BaF3, 72 h, read-out: Ba/F3 (L858R/T790M/C797S) IC50(nM)
[7] = BaF3, cell proliferation, 72 h, CellTiter-Glo, read-out: Ba/F3 (Del19/T790M/C797S) IC50
[8] = A-431, cell proliferation, 72 h, CellTiter-Glo, read-out: A431 EGFR WT IC50
[9] = BaF3, cell proliferation, 72 h, CellTiter-Glo, read-out: Ba/F3 (L858R/T790M/C797S) IC50

Chain of EGFR WT (wild type EGFR) (P00533 25-1210): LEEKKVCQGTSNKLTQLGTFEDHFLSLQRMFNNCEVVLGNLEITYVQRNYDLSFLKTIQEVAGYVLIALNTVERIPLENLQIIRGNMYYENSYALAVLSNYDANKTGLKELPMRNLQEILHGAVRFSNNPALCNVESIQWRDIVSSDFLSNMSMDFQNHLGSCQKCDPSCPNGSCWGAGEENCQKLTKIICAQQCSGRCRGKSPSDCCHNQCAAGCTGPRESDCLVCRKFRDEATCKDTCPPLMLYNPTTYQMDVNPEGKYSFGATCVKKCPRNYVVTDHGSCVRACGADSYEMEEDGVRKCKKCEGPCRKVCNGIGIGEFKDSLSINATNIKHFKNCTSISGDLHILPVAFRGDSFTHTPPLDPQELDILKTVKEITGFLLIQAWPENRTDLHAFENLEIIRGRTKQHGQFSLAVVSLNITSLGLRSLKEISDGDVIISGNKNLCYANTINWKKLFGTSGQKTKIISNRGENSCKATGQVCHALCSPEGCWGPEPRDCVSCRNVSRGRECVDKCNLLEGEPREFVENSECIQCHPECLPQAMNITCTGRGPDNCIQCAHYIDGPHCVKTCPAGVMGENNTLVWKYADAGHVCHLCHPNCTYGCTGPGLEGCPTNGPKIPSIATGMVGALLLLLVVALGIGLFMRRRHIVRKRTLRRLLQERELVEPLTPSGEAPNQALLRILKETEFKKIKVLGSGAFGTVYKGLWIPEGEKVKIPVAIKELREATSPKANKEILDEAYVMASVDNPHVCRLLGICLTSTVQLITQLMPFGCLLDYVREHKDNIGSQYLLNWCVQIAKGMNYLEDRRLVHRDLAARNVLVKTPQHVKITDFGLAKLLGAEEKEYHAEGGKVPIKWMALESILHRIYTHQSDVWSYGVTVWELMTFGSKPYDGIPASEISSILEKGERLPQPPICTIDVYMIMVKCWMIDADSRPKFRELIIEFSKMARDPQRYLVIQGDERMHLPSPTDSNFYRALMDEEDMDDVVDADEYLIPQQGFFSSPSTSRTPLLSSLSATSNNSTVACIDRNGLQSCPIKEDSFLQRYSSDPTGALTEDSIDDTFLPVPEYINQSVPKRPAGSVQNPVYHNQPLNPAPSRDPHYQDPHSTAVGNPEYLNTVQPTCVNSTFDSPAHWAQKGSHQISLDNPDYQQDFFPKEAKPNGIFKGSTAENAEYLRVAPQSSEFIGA

SMILES | IC50 [1, 3] [nM] | IC50 (EGFR WT (wild type EGFR); [4]) [nM] | IC50 (A431 cells (EGFR WT); [5]) [nM] | IC50 [2, 6] [nM] | IC50 [1, 7] [nM] | IC50 (A431 cells (EGFR WT); [8]) [nM] | IC50 [2, 9] [nM] | IC50 (EGFR WT (wild type EGFR)) [nM]
COc1cc2c(cc1Nc1ncc(Br)c(Nc3ccc4nccnc4c3C(=O)N(C)C)n1)-c1cnn(C)c1CCN2C(C)C [Compound 109] | 10 to 50 | 1 to 10 | 100 to 1000 | 10 to 50 | – | – | – | –
COc1cc2c(cc1Nc1ncc(Br)c(Nc3ccn4ccnc4c3NS(C)(=O)=O)n1)-c1cnn(C)c1CCN2C(C)C [Compound 110] | – | 1 to 10 | – | – | 10 to 50 | 100 to 1000 | 50 to 100 | –
COc1cc2c(cc1Nc1ncc(Br)c(Nc3ccnc(C)c3P(C)(C)=O)n1)-c1cnn(C)c1CCN2C(C)C [Compound 111] | – | 1 to 10 | – | – | < 10 | 100 to 1000 | 10 to 50 | –
COc1cc2c(cc1Nc1ncc(Br)c(Nc3ccc4nccnc4c3NS(C)(=O)=O)n1)-c1cn(C)nc1CCN2C(C)C [Compound 112] | – | 1 to 10 | – | – | < 10 | 100 to 1000 | 10 to 50 | –
COc1cc2c(cc1Nc1ncc(Br)c(Nc3ccc4nccnc4c3NS(C)(=O)=O)n1)-c1cnn(C)c1CCN2C#N [Compound 113] | – | 1 to 10 | – | – | < 10 | 100 to 1000 | 10 to 50 | –
COc1cc2c(cc1Nc1ncc(Br)c(Nc3ccc4nccnc4c3N(C(C)C)S(C)(=O)=O)n1)-c1cnn(C)c1CCN2 [Compound 123] | < 10 | – | 100 to 1000 | < 10 | – | – | – | 1 to 10
COc1cc2c(cc1Nc1ncc(Br)c(Nc3ccccc3S(=O)(=O)N(C)C)n1)-c1cnn(C)c1CCN2C(C)C [Compound 126] | – | 1 to 10 | – | – | 100 to 1000 | > 1000 | 100 to 1000 | –
COc1cc2c(cc1Nc1ncc(Br)c(Nc3ccc(F)cc3NS(C)(=O)=O)n1)-c1cnn(C)c1CCN2C(C)C [Compound 128] | – | 1 to 10 | – | – | < 10 | > 1000 | < 10 | –
CNC(=O)c1c(Nc2nc(Nc3cc4c(cc3OC)N(C(C)C)CCc3c-4cnn3C)ncc2Br)ccc2nccnc12 [Compound 129] | – | 1 to 10 | – | – | 10 to 50 | 100 to 1000 | 10 to 50 | –
COc1cc2c(cc1Nc1ncc(Br)c(Nc3ccc4nccnc4c3N(C)S(C)(=O)=O)n1)-c1cnn(C)c1CCN2C(C)C [Compound 131] | – | 1 to 10 | – | – | 10 to 50 | > 1000 | 10 to 50 | –
COc1cc2c(cc1Nc1ncc(Br)c(Nc3cccc4c3NS(=O)(=O)C4)n1)-c1cnn(C)c1CCN2C(C)C [Compound 132] | – | 10 to 50 | – | – | 10 to 50 | > 1000 | 10 to 50 | –
COc1cc2c(cc1Nc1ncc(Br)c(Nc3ccnc(C)c3NS(C)(=O)=O)n1)-c1cnn(C)c1CCN2C [Compound 136] | – | 1 to 10 | – | – | 100 to 1000 | > 1000 | 100 to 1000 | –
COc1cc2c(cc1Nc1ncc(Br)c(Nc3ccc4nccnc4c3CNS(C)(=O)=O)n1)-c1cnn(C)c1CCN2C(C)C [Compound 137] | – | 1 to 10 | – | – | 10 to 50 | 100 to 1000 | 10 to 50 | –
COc1cc2c(cc1Nc1ncc(Br)c(Nc3ccc4nccnc4c3N(C)S(C)(=O)=O)n1)-c1cnn(C)c1CCN2C1CCOCC1 [Compound 138] | – | 1 to 10 | – | – | < 10 | 100 to 1000 | < 10 | –
